Data from patent EP0165696A2, “Improved transdermal dosage form” (priority 1984, dated 1985).
Values after ≈ are worked out from the molar mass of the structure shown. Blank lines part the entries; values can stand above or below the compound they belong to.

Assays:
[1] = In vitro penetration of drug across cadaver skin, modified Franz diffusion cell; assay type: in vitro ADME, human
Description: The rate of penetration and lag time are determined by studying in vitro the penetration of the drug across cadaver skin, hairless mouse skin or other suitable membrane.
A measured portion of each of the formulations 1A-E was applied to the surface of the cadaver skin. The appearance of drug on the dermal side was monitored quantitatively over six days.
Using formulation 2B, four skin samples from the same person were used to determine the average flux. Using formulation 2C, skin samples from four different people were used to determine the average flux.
All formulations were gelled using 6.5 percent by weight of sodium stearate.
A measured portion of each formulation,8A & B, was applied to the surface of the cadaver skin. The appearance of drug on the dermal side was monitored quantitatively over six days.

[2] = Equilibrium solubility of active ingredients in solvents; assay type: physicochemical; conditions: organic solvent or mixture, 34 °C
Description: An exact amount of saturated solution is withdrawn into a volumetric flask while maintaining temperature. The saturated solution is diluted in suitable solvent and the content of active ingredient measured by high pressure liquid chromatography or other suitable analytical method.

- increase in rate of penetration ([1]; mixed solvent system compared to the pure solvents alone, cadaver skin): 3 to 4 times
Compound: C[C@]12CC[C@@H]3c4ccc(O)cc4CC[C@H]3[C@@H]1CC[C@@H]2O [17-beta-estradiol]

Compound: N=C(N)N/N=C/c1c(Cl)cccc1Cl [Guanabenz]
- solubility thermodynamic ([2]; 35/65 propylene glycol/glycerine, 35/65PG/Gly): 21.2 mg/mL (≈ 91.7 mM)
- solubility thermodynamic ([2]; 50/50 propylene glycol/glycerine, 50/50PG/Gly): 29.4 mg/mL (≈ 127 mM)
- solubility thermodynamic ([2]; Glycerine): 7.97 mg/mL (≈ 34.5 mM)
- solubility thermodynamic ([2]; Propylene Glycol): 47 mg/mL (≈ 203 mM)

- rate of penetration enhanced ([1]; levonorgestrel, by 10 weight percent of propylene glycol and glycerine combination): 2.7 times
Compound: C#C[C@]1(O)CC[C@H]2[C@@H]3CCC4=CC(=O)CC[C@@H]4[C@H]3CC[C@@]21CC [Levo-norgestrel]
